Assay results taken from ChEMBL document CHEMBL4765408, “Design and synthesis of benzylidenecyclohexenones as TrxR inhibitors displaying high anticancer activity and inducing ROS, apoptosis, and autophagy” (Eur J Med Chem, 2020).
The source made the active and inactive calls. No cut-off for these calls is given here.

Columns and labels:
[1] = system: A549; assay: Antiproliferative activity against human A549 cells after 72 hrs by sulforhodamine B assay; type: functional, cell-based; settings: A549, 72 h
[2] = system: MDA-MB-231; assay: Antiproliferative activity against human MDA-MB-231 cells after 72 hrs by sulforhodamine B assay; type: functional, cell-based; settings: MDA-MB-231, 72 h
[3] = system: MCF7; assay: Antiproliferative activity against human MCF7 cells after 72 hrs by sulforhodamine B assay; type: functional, cell-based; settings: MCF7, 72 h
[4] = system: KB; assay: Antiproliferative activity against human KB cells after 72 hrs by sulforhodamine B assay; type: functional, cell-based
[5] = Antiproliferative activity against human KB-VIN cells after 72 hrs by sulforhodamine B assay; type: functional, cell-based; settings: KBVIN
[6] = Selectivity ratio of IC50 for human A549 cells to IC50 for human MDA-MB-231 cells; type: functional
[7] = Acute toxicity in ICR mouse assessed as survival at 488.3 mg/kg, ip administered as single dose measured for 14 days; type: organism-based; settings: in vivo, time 14 day, read-out: Activity
[8] = Acute toxicity in ICR mouse assessed as death at 200 mg/kg, ip administered as single dose measured for 14 days; type: organism-based; settings: in vivo, 336 h, time 14 day
[9] = Acute toxicity in ICR mouse assessed as survival at 250 mg/kg, ip administered as single dose measured for 14 days; type: organism-based; settings: in vivo, time 14 day, read-out: Activity
[10] = system: MDA-MB-231; assay: Induction of reactive oxygen species generation in human MDA-MB-231 cells measured after 24 hrs by DCFH-DA probe based flow cytometry; type: functional, cell-based
[11] = system: MDA-MB-231; assay: Induction of autophagy in human MDA-MB-231 cells transfected with mRFP-eGFP-LC3 assessed as accumulation of autophagosomes by measuring increase in […] fluorescence measured after 24 hrs by confocal laser scanning microscopy; type: functional, cell-based
[12] = system: MDA-MB-231; assay: Down regulation of TrxR1 expression in human MDA-MB-231 cells measured after 72 hrs by Western blot analysis; type: functional, cell-based
[13] = species: Rattus norvegicus; assay: Inhibition of purified rat liver TrxR measured after 75 mins in presence of NADPH by DTNB based assay
[14] = system: MDA-MB-231; assay: Induction of apoptosis in human MDA-MB-231 cells at 0.2 uM measured after 72 hrs by APC-Annexin V/7-AAD staining based flow cytometry relative to control; type: functional
[15] = system: MDA-MB-231; assay: Induction of apoptosis in human MDA-MB-231 cells assessed as activation of caspase-3 cleavage at 0.2 to 1.8 uM measured after 72 hrs by Western blot analysis; type: functional, cell-based; settings: dose 0.2-1.8 µM
[16] = system: MDA-MB-231; assay: Induction of autophagy in human MDA-MB-231 cells transfected with mRFP-eGFP-LC3 assessed as accumulation of autolysosome by measuring increase in red fluorescence measured after 24 hrs by confocal laser scanning microscopy; type: functional, cell-based
[17] = Acute toxicity in ICR mouse assessed as survival at 390.6 mg/kg, ip administered as single dose measured for 14 days; type: organism-based; settings: in vivo, time 14 day, read-out: Activity
[18] = Inhibition of TrxR in human MDA-MB-231 cells measured after 72 hrs by colorimetric method; type: cell-based
[19] = system: MDA-MB-231; assay: Induction of autophagy in human MDA-MB-231 cells transfected with mRFP-eGFP-LC3 assessed as decrease in p62 expression at 0.2 to 1.8 uM measured after 72 hrs by Western blot analysis; type: functional, cell-based; settings: dose 0.2-1.8 µM
[20] = Acute toxicity in ICR mouse assessed as abnormality in drinking at 200 mg/kg, ip administered as single dose measured for 14 days; type: organism-based; settings: in vivo, 336 h, time 14 day
[21] = system: MDA-MB-231; assay: Antitumor activity against human MDA-MB-231 cells xenografted in BALB/c nude mouse assessed as reduction in tumor weight at 25 mg/kg, ip measured at 2 days interval for 21 days relative to control; type: functional; design: scale not given: the % may be the effect or the level left; settings: time 2 day
[22] = Acute toxicity in ICR mouse assessed as abnormality in eating at 200 mg/kg, ip administered as single dose measured for 14 days; type: organism-based; settings: in vivo, 336 h, time 14 day
[23] = system: MDA-MB-231; assay: Induction of autophagy in human MDA-MB-231 cells transfected with mRFP-eGFP-LC3 assessed as decrease in LC3-I expression at 0.2 to 1.8 uM measured after 72 hrs by Western blot analysis; type: functional, cell-based; settings: dose 0.2-1.8 µM
[24] = Acute toxicity in ICR mouse assessed as change in body weight at 200 mg/kg, ip administered as single dose measured for 14 days; type: organism-based; settings: in vivo, 336 h, time 14 day
[25] = system: MDA-MB-231; assay: Induction of autophagy in human MDA-MB-231 cells transfected with mRFP-eGFP-LC3 assessed as increase in LC3-II expression at 0.2 to 1.8 uM measured after 72 hrs by Western blot analysis; type: functional, cell-based; settings: dose 0.2-1.8 µM
[26] = system: MDA-MB-231; assay: Induction of apoptosis in human MDA-MB-231 cells assessed as reduction in Bcl-XL expression measured after 72 hrs by Western blot analysis; type: functional, cell-based
[27] = system: MDA-MB-231; assay: Induction of apoptosis in human MDA-MB-231 cells assessed as reduction in Bcl-2 expression measured after 72 hrs by Western blot analysis; type: functional, cell-based
[28] = Acute toxicity in ICR mouse assessed as survival at 200 mg/kg, ip administered as single dose measured for 14 days; type: organism-based; settings: in vivo, time 14 day, read-out: Activity
[29] = system: MDA-MB-231; assay: Antitumor activity against human MDA-MB-231 cells xenografted in BALB/c nude mouse assessed as reduction in tumor volume at 10 to 25 mg/kg, ip measured at 2 days interval for 21 days; type: functional, organism-based; settings: dose 10-25 mg/kg, time 2.0 day
[30] = Acute toxicity in ICR mouse assessed as survival at 312.5 mg/kg, ip administered as single dose measured for 14 days; type: organism-based; settings: in vivo, time 14 day, read-out: Activity
[31] = Acute toxicity in ip dosed ICR mouse administered as single dose measured for 14 days; type: organism-based; settings: in vivo, time 14 day
[32] = system: MDA-MB-231; assay: Induction of apoptosis in human MDA-MB-231 cells at 0.6 uM measured after 72 hrs by APC-Annexin V/7-AAD staining based flow cytometry relative to control; type: functional
[33] = system: MDA-MB-231; assay: Induction of apoptosis in human MDA-MB-231 cells at 1.8 uM measured after 72 hrs by APC-Annexin V/7-AAD staining based flow cytometry relative to control; type: functional

COc1cc(/C=C2\CNC=CC2=O)cc(OC)c1OC
IC50 [1]: > 25 µM | IC50 [2]: > 25 µM | IC50 [3]: > 25 µM

COc1cc(/C=C2\CCC=CC2=O)cc(OC)c1O
IC50 [4]: 1.52 µM | IC50 [1]: 1.54 µM | IC50 [2]: 1.61 µM | IC50 [3]: 2.18 µM | IC50 [5]: 3.1 µM

COc1cccc(/C=C2\CCC=CC2=O)c1OC
IC50 [4]: 3.85 µM | IC50 [1]: 5.09 µM | IC50 [2]: 0.61 µM | IC50 [3]: 4.71 µM | Ratio IC50 [6]: 8 | IC50 [5]: 5.22 µM

O=C1C=CCC/C1=C\c1ccc(OC(F)(F)F)cc1
survival at 336 h [7]: 10% | Activity [8]: Non-Toxic | survival at 336 h [9]: 90% | Activity [10]: Active | IC50 [4]: 0.53 µM | Activity [11]: Dose-dependent effect | Activity [12]: Dose-dependent effect | inhibition [13]: Active | Activity [14]: 20.7% | Activity [15]: Active | Activity [16]: Dose-dependent effect | survival at 336 h [17]: 30% | IC50 [18]: 0.12 µM | Activity [19]: Active | Activity [20]: Non-Toxic | IC50 [1]: 0.44 µM | Activity [21]: 63.3% | Activity [22]: Non-Toxic | Activity [23]: Active | Activity [24]: Non-Toxic | Activity [25]: Active | IC50 [2]: 0.59 µM | Activity [26]: Dose-dependent effect | IC50 [3]: 1.04 µM | Activity [27]: Dose-dependent effect | survival at 336 h [28]: 100% | Activity [29]: Active | survival at 336 h [30]: 70% | LD50 at 336 h [31]: 366 mg/kg | Activity [32]: 45.6% | Activity [33]: 56.8% | IC50 [5]: 0.84 µM

COc1ccc(/C=C2\CCC=CC2=O)c(C)c1
Activity [10]: Active | IC50 [4]: 1.31 µM | IC50 [18]: 0.46 µM | IC50 [1]: 1.55 µM | IC50 [2]: 1.07 µM | IC50 [3]: 1.84 µM | IC50 [5]: 1.59 µM

COc1cc(/C=C2\CCC=CC2=O)cc(OC)c1
IC50 [4]: 3.63 µM | IC50 [1]: 4.74 µM | IC50 [2]: 0.6 µM | IC50 [3]: 4.62 µM | IC50 [5]: 4.87 µM

COc1cc(/C=C2\CN(S(C)(=O)=O)C=CC2=O)cc(OC)c1OC
IC50 [1]: 18.7 µM | IC50 [2]: 15.9 µM | IC50 [3]: 17.6 µM

O=C1C=CCC/C1=C\c1ccc(-c2ccccc2)cc1
IC50 [4]: 2.32 µM | IC50 [1]: 3.67 µM | IC50 [2]: 0.68 µM | IC50 [3]: 4.97 µM | IC50 [5]: 4.84 µM

COc1ccc(/C=C2\CCC=CC2=O)cc1OC
IC50 [4]: 0.9 µM | IC50 [1]: 4.68 µM | IC50 [2]: 0.64 µM | IC50 [3]: 5.23 µM | IC50 [5]: 5.38 µM

CC(=O)n1cc(/C=C2\CCC=CC2=O)c2ccccc21
IC50 [4]: 4.46 µM | IC50 [1]: 4.83 µM | IC50 [2]: 0.93 µM | IC50 [3]: 5.44 µM | IC50 [5]: 5.05 µM

O=C1C=CCC/C1=C\c1ccc2c(c1)OCO2
IC50 [4]: 1.66 µM | IC50 [1]: 1.52 µM | IC50 [2]: 1.65 µM | IC50 [3]: 2.28 µM | IC50 [5]: 2.2 µM

COc1cc(/C=C2\CN(C(=O)OCc3ccccc3)C=CC2=O)cc(OC)c1OC
IC50 [1]: 21.3 µM | IC50 [2]: 24.2 µM | IC50 [3]: > 25 µM

COc1ccc(/C=C2\CCC=CC2=O)cc1
IC50 [4]: 1.56 µM | IC50 [1]: 1.46 µM | IC50 [2]: 1.62 µM | IC50 [3]: 2.57 µM | IC50 [5]: 2.93 µM

Cn1cc(/C=C2\CCC=CC2=O)c2ccccc21
IC50 [4]: 4.42 µM | IC50 [1]: 4.92 µM | IC50 [2]: 3.37 µM | IC50 [3]: 6.04 µM | IC50 [5]: 4.96 µM
